Here are results for one compound from patent US20160038551A1, “STABILIZED MESEMBRINE COMPOSITIONS” (BOTANICAL RESOURCE HOLDINGS PROPRIETARY LIMITED, priority 2013, published 2016).

In the experiment the test system is serotonin-uptake. The experiment in a line: Serotonin-uptake inhibition studies. The settings on record: extensive studies conducted in respect of the present invention; no details.

Take `COc1ccc([C@@]23CCC(=O)C[C@@H]2N(C)CC3)cc1OC` [mesembrine]: the serotonin-uptake inhibition properties entry is listed as “do not show serotonin-uptake inhibition properties”.
